Measured values: PubChem BioAssay AID493172 (Broad Institute, 2011)
Activity calls are given as the source filed them.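 Rule for the calls: active = falling signal with an AC50 no greater than ten times the top valid dose tested for that sample; inconclusive = flat curve with inhibition of 30 to 70 percent, or poor fit; inactive = activity in the rising direction, and the rest.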

Target: LuxS (S-ribosylhomocysteine lyase), bacterial
Test: LuxS enzyme inhibitors, dose response, biochemical, dry powder, set 2, absorbance (AID 493172)
Details: purified Co-LuxS, DTNB homocysteine absorbance 412 nm

AC50, inactive:
C=Cn1c(C(=O)O)ccc1-c1ccc(CC)cc1 > 35 µM

Same assay, conditions: purified Co-LuxS, DTNB homocysteine absorbance 412 nm; at 35 µM (top of the series)

Activity change, negative = inhibition, inactive:
COc1cc(NC(=O)CN2C(=O)NC(c3ccccc3)(c3ccccc3)C2=O)cc(OC)c1
CCc1ccc(S(=O)(=O)Nc2ccc(Br)cn2)cc1
Cn1cnc(S(=O)(=O)Nc2ccc(OC(F)(F)F)cc2)c1
CCc1ccc(C(=O)Nc2ccc(Br)cn2)cc1
Cc1cccc(NC(=O)c2ccc(Oc3ccccc3)cc2)n1
Cc1cccc(NS(=O)(=O)c2ccc(Oc3ccccc3)cc2)n1
